The values that follow come from patent US20090253709A1 (NATIONAL DEFENSE MEDICAL CENTER, priority 2008, published 2009).

The first assay relates to telomerase. Description: Telomeric repeat amplification protocol (TRAP). Format: biochemical. Conditions: compounds at 100, 10 and 1 μM; gel electrophoresis.
As to `CN(C)CCC(=O)Nc1ccc2c(c1)C(=O)c1cc(NC(=O)CCN(C)C)ccc1C2=O` [Compound 20, 2,7-Bis[3-(dimethylamino)propionamido]anthraquinone], the “telomerase inhibition effect in TRAP assay” value is recorded as “telomerase inhibition effect”.

With `CCCC(=O)Nc1ccc2c(c1)C(=O)c1cc(NC(=O)CCC)ccc1C2=O` [Compound 28, 2,7-Bis(butyramido)anthraquinone], the “telomerase inhibition effect in TRAP assay” value was “telomerase inhibition effect”.

With `O=C(Nc1ccc2c(c1)C(=O)c1cc(NC(=O)c3ccccc3)ccc1C2=O)c1ccccc1` [Compound 29, 2,7-Bis(benzoamido)anthraquinone], the “telomerase inhibition effect in TRAP assay” value was “telomerase inhibition effect”.

In a further assay the test system is hTERT expression. The assay can be described thus: SEAP assay, H1299/PhTERT-driven SEAP system. Format: cell-based, human. As to conditions: Homo sapiens, NCI-H1299, read-out: SEAP (Inhibition μM ± SD). An excerpt:
The condition of the cells for selecting the telomerase inhibitor must be the cancer cells with telomerase activity. H1299 is a non-small cell lung cancer cell line with telomerase activity. The hTERT communication gene linked behind PhTERT which is located at the fifth chromosome of H1299 cell can be expressed; however, this expression is hard to detect. Therefore, the plasmid having the SEAP communication gene linked behind PhTERT was transfected into H1299 cells. Under the identical condition, after PhTERT was activated, the SEAP communication gene linked behind the plasmid was also activated. This gene could be detected by this analytic method while expressing.
If additionally added reagent can inhibit PhTERT, the linked SEAP communication gene will not be expressed, and the hTERT communication gene linked behind PhTERT at the fifth chromosome will not be expressed. […]
The cellular medium after the cellular incubation was transferred into the eppondorf tube, and the activity of endogeneous alkaline phosphatase was inactivated at 65° C. for 10 minutes. After centrification, the mixture was obtained by mixing 50 μl of the supernatant with the equal volume of the SEAP buffer. The mixture and the substrate (120 mM of p-nitrophenylphosphate) were preheated at 37° C. for 10 minutes respectively, and the mixture and the substrate were mixed at a ratio of 1:10 and reacted at 37° C. The absorbance of visible light at 405 nm was determined at the appropriate time intervals, and the enzymatic activity of SEAP was represented by the speed of the increasing absorbance at 405 nm.
The selection of telomerase inhibitors of the anthraquinone compounds provided in the present invention was performed by the H1299/PhTERT-driven SEAP system. SEAP is the communication gene in this drug selection model. The SEAP inhibition was shown as follows. The quantitative cellular medium obtained after the 24-hour drug-treatment and the identical inactivation was reacted with the quantitative SEAP substrate, and the absorbance at 405 nm was detected for 5 time intervals. Subsequently, the linear slope of absorbance to the measuring time was calculated, and the variance of absorbance at 405 nm per minute was represented and compared with the SEAP-producing result of drug-untreated H1299 cells. In addition, the influence of the cell-treated drug solution to the cellular proliferation and the drug toxicity to the cells were considered, and the cellular growth was evaluated by the MTT assay. The drug-treated cells were analyzed by the SEAP assay and the data analysis of MTT assay at the same time. Both results were compared so as to delete the influence of cell number or the activity to SEAP, and the dose-dependent phenomenon could be anticipated in the range of drug concentration designed by the laboratory.
In the preliminary selection, the highest concentration was 1000 μM, and 10-fold serial dilutions were done. Therefore, the final concentrations for treating cells were 1 μM, 10 μM and 100 μM, and the drug concentrations were repeated for 5 times. Since the chemically-synthetic drugs have colors thereon, the SEAP value of drug-treatment without cells was also determined to be the background value which was deducted while treating with the drugs. The candidate drug for inhibiting telomerase on the hTERT gene expression level was evaluated and anticipated.
With `CN(C)CCC(=O)Nc1ccc2c(c1)C(=O)c1cc(NC(=O)CCN(C)C)ccc1C2=O` [Compound 20, 2,7-Bis[3-(dimethylamino)propionamido]anthraquinone], the activity at 1 µM worked out at 5 ± 94% and the activity at 10 µM is 13 ± 30%.

Turning to `CCCC(=O)Nc1ccc2c(c1)C(=O)c1cc(NC(=O)CCC)ccc1C2=O` [Compound 28, 2,7-Bis(butyramido)anthraquinone], the activity at 1 µM is 90 ± 8%, the activity at 10 µM is 83 ± 6% and the activity at 100 µM is 83 ± 4%.

The assay is the same for the next values; noted with them: Homo sapiens, NCI-H1299; H1299; compound concentration 1 μM; read-out: SEAP (Inhibition μM ± SD).
Take `O=C(Nc1ccc2c(c1)C(=O)c1cc(NC(=O)c3ccccc3)ccc1C2=O)c1ccccc1` [Compound 29, 2,7-Bis(benzoamido)anthraquinone]: the activity at 1 µM turned out to be 104 ± 10%.

Still in this assay, the particulars now being: Homo sapiens, NCI-H1299; H1299; compound concentration 10 μM; read-out: SEAP (Inhibition μM ± SD).
`O=C(Nc1ccc2c(c1)C(=O)c1cc(NC(=O)c3ccccc3)ccc1C2=O)c1ccccc1` [Compound 29, 2,7-Bis(benzoamido)anthraquinone]: the activity at 10 µM worked out at 92 ± 11%.

Staying with this assay, now noted: Homo sapiens, NCI-H1299; H1299; compound concentration 100 μM; read-out: SEAP (Inhibition μM ± SD).
With `O=C(Nc1ccc2c(c1)C(=O)c1cc(NC(=O)c3ccccc3)ccc1C2=O)c1ccccc1` [Compound 29, 2,7-Bis(benzoamido)anthraquinone], the activity at 100 µM is 85 ± 19%.
